One assay concerns the target T1, PPARα (Homo sapiens, UniProt Q07869).
T1 construct: expressed in transfected cells; host or cells: CV1 (African green monkey kidney)
T1 sequence (Q07869 239-466 limits assumed): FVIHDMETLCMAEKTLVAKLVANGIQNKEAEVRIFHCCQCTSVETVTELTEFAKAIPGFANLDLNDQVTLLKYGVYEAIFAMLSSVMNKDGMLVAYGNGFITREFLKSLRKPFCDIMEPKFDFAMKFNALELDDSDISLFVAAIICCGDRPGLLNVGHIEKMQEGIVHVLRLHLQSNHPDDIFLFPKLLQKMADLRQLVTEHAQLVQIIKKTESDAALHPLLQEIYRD
Description: Gal4 PPARα reporter (CTF) functional assay in CV1 cells. In kind it is cell-based. Conditions: versus 10 μM PPAR agonist reference compound. The procedure: Because GPR40 is known to be activated by ligands to PPARγ, exemplified compounds are examined in Gal4 PPARα, Gal4 PPARδ, and PPARγ reporter assays to determine the selectivity of exemplified compounds for PPAR receptors. CV1 cells, which are derived from the renal tissue of an African green monkey, are transfected with various receptor and reporter plasmids using Fugene. […] After 24 hours incubation with compounds, cells are lysed and luciferase activity is determined as a measure of receptor activation by luminescence. […] The maximum percent stimulation is determined versus maximum stimulation obtained with 10 μM of an appropriate PPAR agonist reference compound, 2-methyl-2-(4-{2-methyl-3-[2-(phenylcarbonyl)-4-(trifluoromethoxy)phenoxy]propoxy}phenoxy)propanoic acid. […] Efficacy was negative for PPARα, PPARδ, and PPARγ is detected with the compound of Example 1 when examined up to […] in the specific PPAR co-transfection (CTF) functional assays described above. […]

A further assay has as its system Male Balb/c mice. Description: Intraperitoneal glucose tolerance test (IPGTT). Type of assay: in vivo, mouse. Here is the method:
To examine the ability of Examples 1 to 20 to activate GPR40 in-vivo resulting in desired glucose lowering efficacy, i.e. reduction in plasma glucose levels, an intraperitoneal glucose tolerance test (ipGTT) study is completed, and the data is shown for the compound tested below.
Male Balb/c (Albino mice) mice (8-9 weeks of age) are single housed, and fed with normal rodent chow diet and water ad libitum. Animals are weighed; randomized by body weight; and their daily body weights are recorded. Animals are dosed daily using a formulation carrying methylcellulose and tween-80. On the night before the study, animals are fasted. In the morning, animals are dosed orally with compound or vehicle alone 60 minutes prior to the glucose tolerance test (glucose 2 g/kg, i.p.). Blood glucose levels are determined from tail bleeds taken at 0, 3, 7, 15, 30, and 60 min after glucose challenge. […] Percent lowering in glucose is calculated from the AUC data of the compound with respect to the AUC of vehicle group. The test compound is orally administered at 0.3, 1.0, 3.0, 10, 30, or 100 mg/kg, and a positive control (3-[4-(2-methyl-benzyloxy)-phenyl]-hex-4-ynoic acid, see WO2005086661 (TAK875).) is administered at 10 mg/kg. […] Glucose levels are lowered at the 30, and 60 minute time points for the positive control.

For a further assay, the target named is hGPR40 (Homo sapiens, UniProt O14842). The experiment in a line: Calcium Flux Primary Assay (FLIPR, Calcium 4 Dye). Type of assay: cell-based. More on the design: expressed in transfected cells; host or cells: HEK293. Conditions: HEK293 cells over expressing human GPR40; Mean±SEM. Here is the method: HEK293 cells over expressing the human GPR40 cDNA maintained in Dulbecco's modified Eagle's medium with F12 medium in 3:1 ratio supplemented with 10% FBS and 800 μg/ml geneticin at 37° C. and 5% CO2 are employed for the study. Agonist assays are performed using a Calcium 4 Dye assay kit (Molecular Devices) in the presence or absence of 0.1% fatty acid free BSA in the assay buffer (1×HBSS (Hank's Balanced Salt Solution) & 20 mM HEPES (4-(2-hydroxyethyl)-1-piperazineethanesulfonic acid). Receptor activation is measured as an increase in intracellular calcium using the Fluorometric Imaging Plate Reader (FLIPR). Maximum change in fluorescence over the base line is used to determine the agonist response. The EC50 value of the compound is calculated using Excel Fit software (version 4; IDBS) by plotting concentration vs relative fluorescence units (RFUs).

pEC50: −log10 of the molar value.

Chain of hGPR40 (O14842 whole entry): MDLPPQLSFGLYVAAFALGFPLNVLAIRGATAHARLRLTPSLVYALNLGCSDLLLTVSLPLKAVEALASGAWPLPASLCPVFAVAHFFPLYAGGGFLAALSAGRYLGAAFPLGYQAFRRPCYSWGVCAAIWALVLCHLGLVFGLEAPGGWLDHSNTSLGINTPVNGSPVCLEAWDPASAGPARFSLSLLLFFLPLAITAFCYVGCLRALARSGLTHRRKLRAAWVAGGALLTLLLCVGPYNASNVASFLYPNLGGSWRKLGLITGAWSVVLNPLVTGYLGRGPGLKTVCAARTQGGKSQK

Consider `CC#C[C@@H](CC(=O)O)c1ccc(OCc2cc(-c3ccccc3C)cn3ncnc23)cc1` [Example 1, (S)-3-[4-(6-o-Tolyl-[1,2,4]triazolo[1,5-a]pyridin-8-ylmethoxy)-phenyl]-hex-4-ynoic acid], for which the “Efficacy for PPARα” value on PPARα is recorded as “negative (Efficacy of <20% is considered negative)”. For the same compound, in the assay with Male Balb/c mice (30 and 60 minute time points, Example 1 at 10, 30, 100 mg/kg oral, positive control 10 mg/kg), the “Glucose levels compared to vehicle control” value is listed as “significantly lowered”. The 50% effective dose (ED50) in the assay with Male Balb/c mice (Mus musculus, oral, 60 min before glucose 2 g/kg i.p., read-out: ED50 based on AUCs for glucose lowering) is 7.9 mg/kg. Further, at hGPR40, the negative logarithm of the EC50 (pEC50) is 6.84.

Usually ED50 stands for the midpoint of the dose-response relation. Broadly, the pEC50 is −log10 of the EC50, conventionally taken in molar units.
